ChEMBL document CHEMBL5291721, “A preclinical secondary pharmacology resource illuminates target-adverse drug reaction associations of marketed drugs” (Nat Commun, 2023)

Legend:
[1] = target: Gamma-aminobutyric acid receptor subunit alpha-1 (Rattus norvegicus, UniProt P62813)
D(1A) dopamine receptor = D(1A) dopamine receptor (Homo sapiens, UniProt P21728)
[2] = target: T1, 5-hydroxytryptamine receptor 1A (Homo sapiens, UniProt P08908)
T1 sequence (P08908 whole entry): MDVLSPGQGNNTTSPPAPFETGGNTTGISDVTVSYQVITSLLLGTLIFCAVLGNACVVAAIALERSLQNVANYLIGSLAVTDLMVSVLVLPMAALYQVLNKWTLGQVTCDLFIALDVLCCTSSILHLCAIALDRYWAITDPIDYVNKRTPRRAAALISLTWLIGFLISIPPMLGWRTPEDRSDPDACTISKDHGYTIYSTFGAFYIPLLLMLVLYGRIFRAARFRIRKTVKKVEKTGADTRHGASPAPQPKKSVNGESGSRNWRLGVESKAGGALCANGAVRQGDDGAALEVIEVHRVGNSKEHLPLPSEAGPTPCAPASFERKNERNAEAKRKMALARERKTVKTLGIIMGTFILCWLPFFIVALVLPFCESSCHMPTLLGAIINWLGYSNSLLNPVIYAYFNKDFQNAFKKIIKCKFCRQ

[3] = target: T2, Alpha-1A adrenergic receptor (Homo sapiens, UniProt P35348); format: functional, cell-based
T2 sequence (P35348 whole entry): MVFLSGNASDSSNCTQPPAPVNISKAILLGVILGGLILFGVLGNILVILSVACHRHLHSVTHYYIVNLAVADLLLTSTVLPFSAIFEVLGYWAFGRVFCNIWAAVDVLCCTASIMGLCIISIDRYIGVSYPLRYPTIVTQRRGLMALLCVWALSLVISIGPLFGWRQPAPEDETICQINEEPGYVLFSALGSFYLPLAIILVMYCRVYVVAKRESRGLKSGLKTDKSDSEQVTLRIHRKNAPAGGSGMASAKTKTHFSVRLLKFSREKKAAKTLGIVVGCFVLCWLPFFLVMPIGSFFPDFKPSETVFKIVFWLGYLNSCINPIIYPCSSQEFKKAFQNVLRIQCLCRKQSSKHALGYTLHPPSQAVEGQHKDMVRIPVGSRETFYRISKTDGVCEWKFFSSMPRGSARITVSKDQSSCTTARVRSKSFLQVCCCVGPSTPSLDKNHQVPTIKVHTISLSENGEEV

[4] = target: T3, Alpha-2A adrenergic receptor (Homo sapiens, UniProt P08913)
T3 sequence (P08913 whole entry): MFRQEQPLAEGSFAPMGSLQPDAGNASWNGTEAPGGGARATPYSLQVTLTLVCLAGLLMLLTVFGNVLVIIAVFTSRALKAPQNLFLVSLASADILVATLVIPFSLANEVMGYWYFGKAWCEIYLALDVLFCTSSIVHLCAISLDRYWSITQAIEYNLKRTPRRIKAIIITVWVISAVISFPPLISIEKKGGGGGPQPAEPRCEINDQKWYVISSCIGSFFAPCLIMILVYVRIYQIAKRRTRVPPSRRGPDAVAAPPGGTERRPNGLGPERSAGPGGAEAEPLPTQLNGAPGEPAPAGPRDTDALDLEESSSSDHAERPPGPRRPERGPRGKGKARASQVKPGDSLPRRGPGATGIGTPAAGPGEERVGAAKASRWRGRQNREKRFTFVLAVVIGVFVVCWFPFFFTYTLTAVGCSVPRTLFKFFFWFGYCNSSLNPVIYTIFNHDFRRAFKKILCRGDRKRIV

Androgen receptor = target: T4, Androgen receptor (Homo sapiens, UniProt P10275)
T4 sequence (P10275 whole entry): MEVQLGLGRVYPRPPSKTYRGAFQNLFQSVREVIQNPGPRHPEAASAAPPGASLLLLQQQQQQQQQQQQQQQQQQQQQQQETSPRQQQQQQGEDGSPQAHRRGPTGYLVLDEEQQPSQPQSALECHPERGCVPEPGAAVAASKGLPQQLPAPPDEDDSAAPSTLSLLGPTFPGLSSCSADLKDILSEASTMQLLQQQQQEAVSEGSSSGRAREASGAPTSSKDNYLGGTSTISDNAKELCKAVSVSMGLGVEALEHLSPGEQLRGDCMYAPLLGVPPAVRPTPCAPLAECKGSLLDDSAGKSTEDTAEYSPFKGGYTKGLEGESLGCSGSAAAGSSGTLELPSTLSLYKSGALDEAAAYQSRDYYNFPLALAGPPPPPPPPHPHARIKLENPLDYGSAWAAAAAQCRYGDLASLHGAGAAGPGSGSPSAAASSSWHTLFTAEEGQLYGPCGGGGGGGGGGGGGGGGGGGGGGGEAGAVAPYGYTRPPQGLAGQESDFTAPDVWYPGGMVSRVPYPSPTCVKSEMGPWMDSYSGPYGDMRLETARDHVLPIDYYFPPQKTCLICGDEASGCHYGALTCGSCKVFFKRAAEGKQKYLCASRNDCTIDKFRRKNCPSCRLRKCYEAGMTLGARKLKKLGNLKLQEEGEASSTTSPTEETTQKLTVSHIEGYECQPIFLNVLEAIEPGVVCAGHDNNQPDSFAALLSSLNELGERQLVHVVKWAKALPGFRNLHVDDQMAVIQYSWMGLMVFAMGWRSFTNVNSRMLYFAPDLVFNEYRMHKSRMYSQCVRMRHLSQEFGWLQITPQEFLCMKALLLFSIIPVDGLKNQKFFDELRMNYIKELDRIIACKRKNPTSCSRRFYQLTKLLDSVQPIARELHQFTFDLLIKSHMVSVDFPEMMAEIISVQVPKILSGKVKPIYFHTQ

[5] = target: Gamma-aminobutyric acid receptor subunit alpha-1/alpha-2/beta-2/gamma-2 (Homo sapiens, UniProt P14867+P18507+P47869+P47870); format: protein-complex assay
Chain of Gamma-aminobutyric acid receptor subunit alpha-1/alpha-2/beta-2/gamma-2 (P14867 whole entry): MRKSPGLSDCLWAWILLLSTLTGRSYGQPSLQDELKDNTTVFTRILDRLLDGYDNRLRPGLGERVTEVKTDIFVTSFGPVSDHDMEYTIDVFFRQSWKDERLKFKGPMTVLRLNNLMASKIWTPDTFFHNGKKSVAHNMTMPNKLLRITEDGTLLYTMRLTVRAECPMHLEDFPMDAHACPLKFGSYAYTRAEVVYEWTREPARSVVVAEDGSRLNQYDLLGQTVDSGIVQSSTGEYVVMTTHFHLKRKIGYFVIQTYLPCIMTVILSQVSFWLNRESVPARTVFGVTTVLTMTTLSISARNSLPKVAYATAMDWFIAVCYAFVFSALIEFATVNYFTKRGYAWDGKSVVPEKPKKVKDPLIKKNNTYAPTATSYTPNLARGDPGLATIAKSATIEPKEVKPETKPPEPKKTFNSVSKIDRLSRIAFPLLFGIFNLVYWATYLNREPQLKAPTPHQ
Chain of Gamma-aminobutyric acid receptor subunit alpha-1/alpha-2/beta-2/gamma-2 (P47870 whole entry): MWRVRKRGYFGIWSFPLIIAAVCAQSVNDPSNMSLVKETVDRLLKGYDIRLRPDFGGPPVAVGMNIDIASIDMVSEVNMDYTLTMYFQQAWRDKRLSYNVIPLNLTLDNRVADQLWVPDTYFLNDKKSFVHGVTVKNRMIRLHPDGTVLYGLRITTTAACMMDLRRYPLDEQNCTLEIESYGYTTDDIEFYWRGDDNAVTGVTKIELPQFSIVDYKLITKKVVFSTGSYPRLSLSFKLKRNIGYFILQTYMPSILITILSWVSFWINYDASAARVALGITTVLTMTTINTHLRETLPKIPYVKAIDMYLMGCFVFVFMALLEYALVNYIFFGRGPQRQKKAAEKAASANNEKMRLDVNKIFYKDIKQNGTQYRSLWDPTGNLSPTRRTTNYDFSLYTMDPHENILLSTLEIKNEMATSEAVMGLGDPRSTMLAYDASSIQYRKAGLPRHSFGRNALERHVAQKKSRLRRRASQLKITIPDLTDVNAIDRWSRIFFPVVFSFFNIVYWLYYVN
Chain of Gamma-aminobutyric acid receptor subunit alpha-1/alpha-2/beta-2/gamma-2 (P18507 whole entry): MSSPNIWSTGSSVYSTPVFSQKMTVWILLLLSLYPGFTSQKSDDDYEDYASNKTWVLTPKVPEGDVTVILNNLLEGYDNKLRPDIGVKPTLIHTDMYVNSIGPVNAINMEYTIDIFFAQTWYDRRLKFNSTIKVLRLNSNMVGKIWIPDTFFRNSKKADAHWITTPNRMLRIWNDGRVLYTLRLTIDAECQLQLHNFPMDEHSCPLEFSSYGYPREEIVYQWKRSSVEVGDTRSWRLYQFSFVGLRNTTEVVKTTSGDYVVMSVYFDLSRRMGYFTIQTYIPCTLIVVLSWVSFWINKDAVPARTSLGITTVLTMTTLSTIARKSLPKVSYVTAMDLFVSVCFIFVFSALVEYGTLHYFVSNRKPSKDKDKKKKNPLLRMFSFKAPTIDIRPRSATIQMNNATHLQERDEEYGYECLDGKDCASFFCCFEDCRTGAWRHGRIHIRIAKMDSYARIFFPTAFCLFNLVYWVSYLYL
Chain of Gamma-aminobutyric acid receptor subunit alpha-1/alpha-2/beta-2/gamma-2 (P47869 whole entry): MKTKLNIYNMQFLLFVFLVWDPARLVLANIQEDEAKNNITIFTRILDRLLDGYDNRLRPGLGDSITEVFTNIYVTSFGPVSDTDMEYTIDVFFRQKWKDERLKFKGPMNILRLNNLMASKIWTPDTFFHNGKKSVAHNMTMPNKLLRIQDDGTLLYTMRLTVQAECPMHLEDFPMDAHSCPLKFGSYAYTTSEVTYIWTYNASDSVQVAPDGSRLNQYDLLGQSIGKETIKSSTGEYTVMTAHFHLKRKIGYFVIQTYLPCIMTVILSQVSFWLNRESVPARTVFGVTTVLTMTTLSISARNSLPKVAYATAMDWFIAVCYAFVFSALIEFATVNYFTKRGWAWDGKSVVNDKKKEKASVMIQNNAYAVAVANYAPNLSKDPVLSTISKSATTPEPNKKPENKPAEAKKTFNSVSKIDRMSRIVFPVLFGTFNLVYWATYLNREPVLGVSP

[6] = target: Glutamate receptor ionotropic, NMDA 1 (Rattus norvegicus, UniProt P35439)
[7] = target: cGMP-inhibited 3',5'-cyclic phosphodiesterase 3A (Homo sapiens, UniProt Q14432); format: functional
Chain of cGMP-inhibited 3',5'-cyclic phosphodiesterase 3A (Q14432 whole entry): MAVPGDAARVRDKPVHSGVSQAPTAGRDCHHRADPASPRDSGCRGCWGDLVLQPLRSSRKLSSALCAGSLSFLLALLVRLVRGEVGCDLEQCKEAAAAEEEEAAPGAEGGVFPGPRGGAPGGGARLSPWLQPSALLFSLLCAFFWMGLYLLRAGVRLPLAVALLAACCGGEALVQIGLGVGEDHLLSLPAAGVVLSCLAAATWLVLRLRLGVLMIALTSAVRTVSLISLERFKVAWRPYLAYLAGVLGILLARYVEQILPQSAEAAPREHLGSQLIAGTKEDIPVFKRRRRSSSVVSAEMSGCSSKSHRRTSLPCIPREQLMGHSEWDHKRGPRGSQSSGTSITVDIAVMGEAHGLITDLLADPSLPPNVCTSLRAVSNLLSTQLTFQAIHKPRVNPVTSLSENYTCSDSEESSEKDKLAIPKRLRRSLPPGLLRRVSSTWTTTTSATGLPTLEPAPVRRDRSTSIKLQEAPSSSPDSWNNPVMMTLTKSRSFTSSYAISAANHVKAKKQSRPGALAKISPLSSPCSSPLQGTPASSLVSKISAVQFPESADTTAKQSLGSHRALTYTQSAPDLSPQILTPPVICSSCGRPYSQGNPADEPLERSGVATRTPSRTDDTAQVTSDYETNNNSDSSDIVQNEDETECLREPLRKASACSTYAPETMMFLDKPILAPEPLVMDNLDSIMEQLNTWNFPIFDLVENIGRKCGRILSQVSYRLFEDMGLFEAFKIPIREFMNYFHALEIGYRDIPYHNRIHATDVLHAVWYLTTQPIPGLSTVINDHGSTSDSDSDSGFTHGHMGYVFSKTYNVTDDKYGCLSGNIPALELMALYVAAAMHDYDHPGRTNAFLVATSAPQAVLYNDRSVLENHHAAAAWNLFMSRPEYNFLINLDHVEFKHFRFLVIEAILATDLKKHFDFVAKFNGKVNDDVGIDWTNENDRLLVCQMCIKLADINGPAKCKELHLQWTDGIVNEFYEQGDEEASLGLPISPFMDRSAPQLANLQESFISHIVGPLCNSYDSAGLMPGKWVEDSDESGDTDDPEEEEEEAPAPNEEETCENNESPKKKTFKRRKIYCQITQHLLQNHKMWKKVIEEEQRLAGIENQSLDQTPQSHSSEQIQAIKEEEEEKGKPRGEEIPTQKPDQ
Also: assay procedure not described here.

Chain of Gamma-aminobutyric acid receptor subunit alpha-1 (P62813 whole entry): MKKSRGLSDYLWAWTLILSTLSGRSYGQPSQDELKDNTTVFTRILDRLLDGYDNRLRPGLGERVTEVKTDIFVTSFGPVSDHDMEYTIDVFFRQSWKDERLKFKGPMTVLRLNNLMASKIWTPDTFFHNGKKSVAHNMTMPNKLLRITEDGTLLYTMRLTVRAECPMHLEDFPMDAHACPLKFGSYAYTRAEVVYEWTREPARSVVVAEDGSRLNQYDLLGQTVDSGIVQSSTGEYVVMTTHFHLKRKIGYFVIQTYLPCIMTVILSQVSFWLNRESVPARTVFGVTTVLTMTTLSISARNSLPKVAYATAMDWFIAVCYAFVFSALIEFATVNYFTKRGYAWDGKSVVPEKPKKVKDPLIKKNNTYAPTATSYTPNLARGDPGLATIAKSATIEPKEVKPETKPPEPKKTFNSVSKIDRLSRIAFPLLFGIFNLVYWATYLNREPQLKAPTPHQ
Chain of D(1A) dopamine receptor (P21728 whole entry): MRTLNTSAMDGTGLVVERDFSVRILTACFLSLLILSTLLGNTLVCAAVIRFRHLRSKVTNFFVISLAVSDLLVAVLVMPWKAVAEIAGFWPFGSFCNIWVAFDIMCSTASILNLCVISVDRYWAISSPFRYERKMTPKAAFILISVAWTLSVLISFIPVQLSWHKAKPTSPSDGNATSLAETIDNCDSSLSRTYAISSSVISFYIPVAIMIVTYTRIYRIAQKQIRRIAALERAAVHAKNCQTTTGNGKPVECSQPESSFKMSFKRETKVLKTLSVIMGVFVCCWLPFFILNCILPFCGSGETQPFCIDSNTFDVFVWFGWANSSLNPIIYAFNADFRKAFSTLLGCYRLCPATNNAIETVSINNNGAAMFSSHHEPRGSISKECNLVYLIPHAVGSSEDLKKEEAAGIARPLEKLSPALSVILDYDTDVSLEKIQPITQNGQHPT

Compound	AC50 [1]	AC50 (D(1A) dopamine receptor)	AC50 [2]	AC50 [3]	AC50 [4]	AC50 (Androgen receptor)	AC50 [5]	AC50 [6]	AC50 [7]
OC(c1ccccc1)(c1ccccc1)C12CC[N+](CCOCc3ccccc3)(CC1)CC2	> 30 µM	> 30 µM	> 30 µM	> 30 µM	> 30 µM	> 30 µM			
N=C1CCCN1Cc1[nH]c(=O)[nH]c(=O)c1Cl	> 30 µM	> 30 µM	> 30 µM	> 30 µM	> 30 µM	> 30 µM			
CC(=O)[C@@]1(O)CC[C@H]2[C@@H]3C=C(C)C4=CC(=O)CC[C@]4(C)[C@H]3CC[C@@]21C		> 30 µM	> 30 µM	> 30 µM	> 30 µM	0.0119 µM	> 30 µM		
CC1=C(/C=C/C(C)=C/C=C/C(C)=C/C=C/C=C(C)/C=C/C=C(C)/C=C/C2=C(C)CCCC2(C)C)C(C)(C)CCC1 [BETA CAROTENE]	> 30 µM	> 30 µM	> 30 µM	> 30 µM	> 30 µM	> 30 µM			
CC(C)(C)N1CCC(c2ccccc2)(c2ccccc2)CC1 [BUDIPINE]		> 30 µM	> 30 µM	> 30 µM	> 30 µM	> 30 µM	> 30 µM		
NC1CCN(c2c(F)cc3c(=O)c(C(=O)O)cn(C4CC4)c3c2Cl)C1 (stereo not drawn) [CLINAFLOXACIN]		> 30 µM	> 30 µM	> 30 µM	> 30 µM	> 30 µM	> 30 µM		
CC(C)(C)CC(C)(C)c1ccc(O)c(Cc2ccc(Cl)cc2Cl)c1 [CLOFOCTOL]	> 30 µM	29.7 µM	> 30 µM	> 30 µM	> 30 µM	14.9 µM			
CCOc1ccc(Cc2cc([C@@H]3O[C@H](CO)[C@@H](O)[C@H](O)[C@H]3O)ccc2Cl)cc1 [DAPAGLIFLOZIN]	> 30 µM	> 30 µM	> 30 µM	> 30 µM	> 30 µM	> 30 µM		> 10 µM	> 30 µM
CC(=O)OCC(=O)[C@@]1(O)CC[C@H]2[C@@H]3CCC4=CC(=O)C=C[C@]4(C)[C@@]3(Cl)[C@@H](Cl)C[C@@]21C [DICHLORISONE ACETATE]	> 30 µM	> 30 µM	> 30 µM	> 30 µM	> 30 µM	0.128 µM			
CCOc1ccccc1C(N)=O [ETHENZAMIDE]		> 30 µM	> 30 µM	> 30 µM	> 30 µM	> 30 µM	> 30 µM		
CCOC(=O)/C=C1\SC(N2CCCCC2)C(=O)N1C (stereo not drawn) [ETOZOLIN]		> 30 µM	> 30 µM	> 30 µM	> 30 µM	> 30 µM	> 30 µM		
CCCCOC(=O)C(=O)[C@H]1[C@H](C)C[C@H]2[C@@H]3C[C@H](F)C4=CC(=O)C=C[C@]4(C)[C@H]3[C@@H](O)C[C@@]21C [FLUOCORTIN BUTYL]		> 30 µM	> 30 µM	> 30 µM	> 30 µM	0.316 µM	> 30 µM		
N[C@H]1C(O)O[C@H](CO)[C@@H](O)[C@@H]1O (stereo partly drawn) [GLUCOSAMINE]		> 30 µM	> 30 µM	> 30 µM	> 30 µM	> 30 µM	> 30 µM		
CC[C@H]1CN2CC[C@H]1C[C@H]2[C@H](O)c1ccnc2ccc(OC)cc12 [HYDROQUININE]	> 30 µM	> 30 µM	> 30 µM	> 30 µM	3.59 µM	> 30 µM			
C[N+]1(CCCCC[N+]2(C)CCCC2)CCCC1 [PENTOLINIUM]		> 30 µM	> 30 µM	> 30 µM	> 30 µM	> 30 µM	> 30 µM		
O=C(O)c1ccccc1C(=O)Nc1ccc(S(=O)(=O)Nc2nccs2)cc1 [PHTHALYLSULFATHIAZOLE]	> 30 µM	> 30 µM	> 10 µM	> 30 µM	> 30 µM	> 30 µM			
COc1cc([C@@H]2c3cc4c(cc3[C@H](O)[C@H]3COC(=O)[C@H]23)OCO4)cc(OC)c1OC [PODOFILOX]		> 30 µM	> 30 µM	> 30 µM	> 30 µM	> 30 µM	> 30 µM		
O=[N+]([O-])c1cn2c(n1)OC[C@@H](OCc1ccc(OC(F)(F)F)cc1)C2 [PRETOMANID]	> 30 µM	> 30 µM	> 30 µM	> 10 µM	> 30 µM	> 30 µM		> 10 µM	> 10 µM
OC(CCN1CCCCC1)(c1ccccc1)c1ccccc1 [PRIDINOL]	> 30 µM	> 30 µM	29.8 µM	> 30 µM	> 30 µM	> 30 µM			
Nc1ccc(S(=O)(=O)c2cnc(N)s2)cc1 [THIAZOLSULFONE]	> 30 µM	> 30 µM	> 30 µM	> 30 µM	> 30 µM	> 30 µM			
Nc1nc2nc[nH]c2c(=S)[nH]1 [THIOGUANINE]	> 30 µM	> 30 µM	> 30 µM	> 30 µM	> 30 µM	> 30 µM			
CC(CNC(=O)c1ccccc1)C(=O)OCC(=O)[C@@]12OC(C)(C)O[C@@H]1C[C@H]1[C@@H]3CCC4=CC(=O)C=C[C@]4(C)[C@@]3(F)[C@@H](O)C[C@@]12C (stereo partly drawn) [TRIAMCINOLONE BENETONIDE]	> 30 µM	> 30 µM	> 30 µM	> 30 µM	> 30 µM	> 30 µM			
O=C(Nc1ccc(Cl)cc1)Nc1ccc(Cl)c(Cl)c1 [TRICLOCARBAN]	> 30 µM	> 30 µM	> 30 µM	> 30 µM	> 30 µM	> 30 µM			
CC[C@]1(O)C[C@H]2CN(CCc3c([nH]c4ccccc34)[C@@](C(=O)OC)(c3cc4c(cc3OC)N(C=O)[C@H]3[C@@](O)(C(=O)OC)[C@H](OC(C)=O)[C@]5(CC)C=CCN6CC[C@]43[C@@H]65)C2)C1 [VINCRISTINE]	> 30 µM	> 30 µM	> 30 µM	> 30 µM	> 30 µM	> 30 µM			
